Test results from publication PMC9501172, “Gallic Acid Alkyl Esters: Trypanocidal and Leishmanicidal Activity, and Target Identification via Modeling Studies” (Molecules, 2022).
Converted amounts (≈) assume the structure as drawn. Read-outs that look alike come from different tables or passages of the source. Blank lines part the entries; values can stand above or below the molecule they belong to.

Key:
[1] = tested on: bloodstream forms of T. brucei; assay: Trypanocidal activity, resazurin viability assay; type: cell-based, Trypanosoma brucei; settings: for GI50 / MIC: Trypanosoma brucei; for MIC: concentration at which all cells were killed, determined microscopically
Procedure: (§1) Trypanocidal, leishmanicidal, and cytotoxic activities of gallic acid alkyl esters were determined with bloodstream forms of T. brucei (clone 427-221a), promastigotes of L. major (strain MHOM/IL/81/Friedlin [51]), and human myeloid HL-60 cell, respectively. The viability of cells was evaluated with the vital dye resazurin as previously described with some modifications. Cells were seeded in 96-well plates in a final volume of 200 μL Baltz medium (T. brucei bloodstream forms and HL-60 cells) or Schneider’s insect medium (L. major promastigotes) supplemented with 16.7% and 10% fetal bovine serum, respectively. Test compounds were assayed at tenfold dilutions starting from 100 μM down up to 100 nM in the presence of 0.9% DMSO. Wells containing medium with 0.9% DMSO alone served as controls. The initial cell densities were 1 × 10^4/mL for T. brucei bloodstream forms, 2.5 × 10^5/mL for L. major promastigotes, and 5 × 10^4/mL for HL-60 cells. The cultures were incubated at 37 °C (T. brucei bloodstream forms and HL-60 cells) and 27 °C (L. major promastigotes) in a humidified atmosphere containing 5% CO2. After 24 h of incubation, 20 µL of a 0.5 mM resazurin solution prepared in sterile PBS was added to each well, and the cultures were incubated for another 48 h. Then, the absorbance of each well was read on a BioTek ELx808 microplate reader using a test wavelength of 570 nm and a reference wavelength of 630 nm. The 50% growth inhibition (GI50) value, i.e., the concentration of a compound necessary to reduce the growth rate of cells by 50% compared to the control, was determined by linear interpolation. The minimum inhibitory concentration (MIC) value, i.e., the concentration of a compound at which all cells were killed, was determined microscopically.

[2] = tested on: human myeloid HL-60 cells; assay: General cytotoxicity, resazurin viability assay; type: cell-based; settings: for cytotoxicity against the human cells: HL-60, in words; for GI50 / MIC: Homo sapiens; for GI50: HL-60, 72 h, resazurin, 24 h + 48 h; for MIC: concentration at which all cells were killed, determined microscopically
Procedure: as §1

[3] = tested on: promastigotes of L. major; assay: Leishmanicidal activity, resazurin viability assay; type: cell-based, Leishmania major; settings: for inhibition at 100 µM: read-out: Growth Inhibition (% at 100 μM); for leishmanicidal activity: in words; for GI50: values in brackets
Procedure: as §1

HL-60 / T. brucei = assay: Selectivity: ratio of cytotoxic to trypanocidal activity; type: cell-based, Trypanosoma brucei; settings: for GI50 Ratio: GI50(HL-60)/GI50(T. brucei); for MIC Ratio: MIC(HL-60)/MIC(T. brucei)
Procedure: as §1

[4] = tested on: T. brucei bloodstream forms; assay: Motility assay with glucose or glycerol as substrate; type: cell-based, Trypanosoma brucei; settings: 55 mM glucose, compound 200 μM, PBS
Procedure: A culture of bloodstream forms of T. brucei was divided into two equal portions (9 mL) and collected by centrifugation. The cell pellets were resuspended in 1 mL PBS containing 55 mM glucose or 55 mM glycerol. After subsequent centrifugation, the cell pellets were resuspended again in PBS/55 mM glucose and PBS/55 mM glycerol, respectively, and the cell density was adjusted to 2 × 10^6/mL. Then, 100 μL of trypanosomes were mixed with 100 μL PBS/55 mM glucose or 100 μL PBS/55 mM glycerol containing gallic acid alkyl esters at a concentration of 400 μM, giving a final concentration of the esters in the assay of 200 μM. The final concentration of DMSO in each test was 0.9%. The motility of the trypanosomes was examined under the microscope.

T. brucei = settings: cited from earlier work
Vero cells [5] = assay: Cytotoxicity against Vero cells quoted from the literature; type: cell-based; settings: for times Vero cells are less sensitive compared with HL-60 cells: GI50(Vero) vs GI50(HL-60); for selectivity: using the Vero cell cytotoxicity as the basis, relative to trypanocidal activity
Vero cells [6] = tested on: Vero cells; parameters: method as in PMID 18797755; settings: cited from earlier work
[7] = tested on: murine B-lymphoma WEHI-231 cells; parameters: method as in PMID 9466819; settings: cited from earlier work
[8] = 72 h, bloodstream forms clone 427-221a, resazurin, 24 h + 48 h, read-out: T. brucei GI50
[9] = bloodstream forms clone 427-221a
[10] = T. brucei bloodstream forms, GI50 expressed in μg/mL, read-out: GI50
[11] = trypanocidal activity of related phenolic esters

melting point: 94 to 96 °C
Compound: CCCCCOC(=O)c1cc(O)c(O)c(O)c1 [Compound 7, Gallic acid pentyl ester]
GI50 [1, 8]: 32.8 ± 0.9 µM
MIC [1, 9]: 100 µM (≈ 24 µg/mL)
cytotoxicity against the human cells [2]: no cytotoxicity
GI50 [2]: > 100 µM
MIC [2]: > 100 µM
MIC ([3]; Leishmania major): > 100 µM
inhibition at 100 µM ([3]; Leishmania major): 0%
leishmanicidal activity [3]: no leishmanicidal activity
GI50 Ratio (HL-60 / T. brucei): >3.0
MIC Ratio (HL-60 / T. brucei): >1
Motility after 5 min [4]: + + +

Compound: CC(C)OC(=O)c1cc(O)c(O)c(O)c1 [Compound 3, Gallic acid isopropyl ester]
GI50 [1, 8]: 8.4 ± 2.2 µM
MIC [1, 9]: 100 µM (≈ 21.2 µg/mL)
GI50 [2]: 87.9 ± 8.2 µM
MIC [2]: > 100 µM
MIC ([3]; Leishmania major): > 100 µM
inhibition at 100 µM ([3]; Leishmania major): 34%
GI50 Ratio (HL-60 / T. brucei): 10.5
MIC Ratio (HL-60 / T. brucei): >1
Motility after 5 min [4]: + + +

Compound: O=C(O)c1cc(O)c(O)c(O)c1 [gallic acid, 3,4,5-trihydroxybenzoic acid]
GI50 (T. brucei; trypanocidal activity of the reactant): 14.2 µM

Compound: Cc1ccc(C(=O)Nc2ccc(S(=O)(=O)O)c3cc(S(=O)(=O)O)cc(S(=O)(=O)O)c23)cc1NC(=O)c1cccc(NC(=O)Nc2cccc(C(=O)Nc3cc(C(=O)Nc4ccc(S(=O)(=O)O)c5cc(S(=O)(=O)O)cc(S(=O)(=O)O)c45)ccc3C)c2)c1 [Suramin, reference compound]
GI50 [1, 8]: 0.04 µM
MIC [1, 9]: 1 µM (≈ 1.3 µg/mL)
GI50 [2]: > 100 µM
MIC [2]: > 100 µM
times higher GI50 ratio than gallic acid alkyl esters 4, 5, and 6 (HL-60 / T. brucei): 100 times
times higher MIC ratio than gallic acid alkyl esters 4, 5, and 6 (HL-60 / T. brucei): 10 times
GI50 Ratio (HL-60 / T. brucei): >2500
MIC Ratio (HL-60 / T. brucei): >100

Compound: CCCOC(=O)c1cc(O)c(O)c(O)c1 [Compound 4, Gallic acid propyl ester]
times less active compared with suramin ([1]; T. brucei bloodstream forms): 10–100 times
GI50 [1, 8]: ~3 µM
GI50 [1, 10]: 0.63 to 0.78 µg/mL
MIC [1, 9]: 10 µM (≈ 2.12 µg/mL)
GI50 [2]: 82 ± 8.2 µM
MIC [2]: > 100 µM
MIC ([3]; Leishmania major): 100 µM (≈ 21.2 µg/mL)
inhibition at 100 µM ([3]; Leishmania major): 61%
GI50 ([3]; Leishmania major): 50.4 µM
MIC Ratio (HL-60 / T. brucei): >10
Motility after 5 min [4]: + + +
times Vero cells are less sensitive compared with HL-60 cells (Vero cells [5]): 8.7 times
selectivity (Vero cells [5]): > 100
GI50 (Vero cells [6]): 713 µM

Compound: COC(=O)c1cc(O)c(O)c(O)c1 [Compound 1, Gallic acid methyl ester]
GI50 [1, 8]: 24.5 ± 4.5 µM
MIC [1, 9]: 100 µM (≈ 18.4 µg/mL)
cytotoxicity against the human cells [2]: no cytotoxicity
GI50 [2]: > 100 µM
MIC [2]: > 100 µM
MIC ([3]; Leishmania major): > 100 µM
inhibition at 100 µM ([3]; Leishmania major): 2%
GI50 Ratio (HL-60 / T. brucei): >4.1
MIC Ratio (HL-60 / T. brucei): >1
Motility after 5 min [4]: + + +

Compound: CC(C)CCOC(=O)C=Cc1ccc(O)c(O)c1 [caffeic acid isopentyl ester, 3,4-dihydroxycinnamic (caffeic) acid isopentyl ester]
GI50 (T. brucei; [11]): 1.24 µM

Compound: O=C(/C=C/c1ccc(O)c(O)c1)OCCc1ccccc1 [caffeic acid phenethyl ester]
GI50 (T. brucei; trypanocidal activity): 0.046 µM

Compound: CCOC(=O)C=Cc1ccc(O)c(OC)c1 [ferulic acid ethyl ester, 3-methoxy-4-hydroxycinnamic (ferulic) acid ethyl ester]
GI50 (T. brucei; [11]): 110 µM

Compound: CCOC(=O)c1cc(O)c(O)c(O)c1 [Compound 2, Gallic acid ethyl ester]
GI50 [1, 8]: 27.9 ± 2.4 µM
MIC [1, 9]: 100 µM (≈ 19.8 µg/mL)
cytotoxicity against the human cells [2]: no cytotoxicity
GI50 [2]: > 100 µM
MIC [2]: > 100 µM
MIC ([3]; Leishmania major): > 100 µM
inhibition at 100 µM ([3]; Leishmania major): 0%
leishmanicidal activity [3]: no leishmanicidal activity
GI50 Ratio (HL-60 / T. brucei): >3.6
MIC Ratio (HL-60 / T. brucei): >1
Motility after 5 min [4]: + + +

Compound: CCCCCCCCCCCCOC(=O)c1cc(O)c(O)c(O)c1 [dodecyl gallate]
GI50 [7]: 1 µM

Compound: CCCCCCCCOC(=O)c1cc(O)c(O)c(O)c1 [octyl gallate]
GI50 [7]: 1.5 µM

Compound: C[C@@H]1[C@H](O)[C@@H](C)/C=C/C=C/C=C/C=C/C=C/C=C/C=C/[C@H](O[C@@H]2O[C@H](C)[C@@H](O)[C@H](N)[C@@H]2O)C[C@@H]2O[C@](O)(C[C@@H](O)C[C@@H](O)[C@H](O)CC[C@@H](O)C[C@@H](O)CC(=O)O[C@H]1C)C[C@H](O)[C@H]2C(=O)O [Amphotericin B, reference compound]
MIC ([3]; Leishmania major): 0.1 µM (≈ 0.0924 µg/mL)
inhibition at 10 µM ([3]; Leishmania major, at 10 μM, read-out: Growth Inhibition (%)): 100%
GI50 ([3]; Leishmania major): 0.04 µM

Compound: CCCCOC(=O)c1cc(O)c(O)c(O)c1 [Compound 5, Gallic acid butyl ester]
times less active compared with suramin ([1]; T. brucei bloodstream forms): 10–100 times
GI50 [1, 8]: ~3 µM
GI50 [1, 10]: 0.63 to 0.78 µg/mL
MIC [1, 9]: 10 µM (≈ 2.26 µg/mL)
GI50 [2]: 74.8 ± 4.5 µM
MIC [2]: > 100 µM
MIC ([3]; Leishmania major): 100 µM (≈ 22.6 µg/mL)
inhibition at 100 µM ([3]; Leishmania major): 58%
GI50 ([3]; Leishmania major): 62.4 µM
MIC Ratio (HL-60 / T. brucei): >10
Motility after 5 min [4]: + + +
times Vero cells are less sensitive compared with HL-60 cells (Vero cells [5]): 4.8 times
selectivity (Vero cells [5]): > 100
GI50 (Vero cells [6]): 361 µM

melting point: 152 to 153 °C
Compound: COCCOC(=O)c1cc(O)c(O)c(O)c1 [Compound 8, Gallic acid 2-methoxyethyl ester]
GI50 [1, 8]: 5.6 ± 1.3 µM
MIC [1, 9]: 100 µM (≈ 22.8 µg/mL)
GI50 [2]: 99.2 ± 9.4 µM
MIC [2]: > 100 µM
MIC ([3]; Leishmania major): 100 µM (≈ 22.8 µg/mL)
inhibition at 100 µM ([3]; Leishmania major): 47%
GI50 Ratio (HL-60 / T. brucei): 17.7
MIC Ratio (HL-60 / T. brucei): >1
Motility after 5 min [4]: + + +

Compound: CC(C)CCOC(=O)c1cc(O)c(O)c(O)c1 [Compound 6, Gallic acid isopentyl ester]
times less active compared with suramin ([1]; T. brucei bloodstream forms): 10–100 times
GI50 [1, 8]: ~3 µM
GI50 [1, 10]: 0.63 to 0.78 µg/mL
MIC [1, 9]: 10 µM (≈ 2.4 µg/mL)
GI50 [2]: 90.4 ± 21.6 µM
MIC [2]: > 100 µM
MIC ([3]; Leishmania major): 100 µM (≈ 24 µg/mL)
inhibition at 100 µM ([3]; Leishmania major): 45%
MIC Ratio (HL-60 / T. brucei): >10
Motility after 5 min [4]: + + +
